PubChem BioAssay AID2305 (GlaxoSmithKline (GSK), 2010)
“And” between values parts separate entries of the source, which are not always exact repeats. Equal entries are not always repeated.

Tested on: P. falciparum 3D7 growth, pLDH absorbance
Test: P. falciparum 3D7 growth inhibition, dose response, strain 3D7 (AID 2305)

| Compound | IC50 |
| --- | --- |
| COCc1nc(N)nc(N)c1-c1ccc(Cl)c(Cl)c1 | 1.02 µM |
| C=CCn1c(=N)c(C(=O)NCc2ccc(F)cc2)cc2c(=O)n3cccc(C)c3nc21 | 1.17 µM |
| Oc1cc(Nc2ccnc3cc(-c4ccc(CN5CCCCC5)o4)c(Cl)cc23)c(Cl)cc1F | 1.26 µM |
| CC[C@H](NC(=O)c1c(CN2CCC(N3CCCCC3)CC2)c(-c2ccccc2)nc2cc(O)ccc12)c1ccccc1 | 1.37 µM |
| CC[C@H]1CN2CC[C@H]1C[C@H]2[C@H](O)c1cc(Cl)nc2ccc(OC)cc12 | 0.58 µM |
| CCOc1ccc(N2C(N)=NC(N)=NC2(C)C)cc1 | 0.26 µM |
| O=C(Nc1ccc(-c2nc3ccccc3[nH]2)cc1)c1ccc(S(=O)(=O)N2CCCCC2)cc1 | 0.75 µM |
| CC(=O)c1sc2ccccc2c1O | 0.88 µM |
| Cc1ccc2nc(C)cc(NN=Cc3cccc([N+](=O)[O-])c3)c2c1 | 0.88 µM |
| O=c1cc(NCCCNCc2csc(Br)c2Sc2ccc(Cl)cc2)[nH]c2ccccc12 | 0.85 µM |
| CCCNCc1ccc(-c2ccc(CN(CC3CCCO3)C(=O)C3CC(=O)c4ccccc43)cc2)nc1 (stereo not given) | 0.86 µM |
| O=c1cc(NCCCNCc2cc(C(F)(F)F)ccc2Cl)[nH]c2ccccc12 | 1.02 µM |
| COc1ccc2cc(C(=O)Nc3ccc4c(c3)CCN(C3CCC3)CC4)ccc2c1 | 0.84 µM |
| Fc1ccc2nc(-c3ccc(-c4ccc(CNCCN5CCNCC5)cc4)s3)[nH]c2c1 | 0.78 µM |
| Cc1cccc2[nH]c(-c3cccc(-c4cccc(NC(=O)N[C@@H]5C[C@H]5c5ccccc5)c4)c3)nc12 | 0.71 µM |
| Cc1ccccc1C1CCN(C2CCC(NC(=O)/C=C/c3cccc(Cl)c3)CC2)CC1 (stereo not given) | 0.89 µM |
| CCNc1cc(C(=O)N[C@@H](Cc2ccccc2)[C@H](O)CNC(C)(C)CCCC(C)C)cc(N2CCCCS2(=O)=O)c1 | 0.45 µM |
| CN(C)CCOC(=O)C1(O)CCC2CC1C2(C)C (stereo not given) | 0.98 µM |
| O=C(/C=C/c1ccc(Cl)c(Cl)c1)NCCCCCN1CCC(NC(=O)Nc2ccc(F)c(F)c2)CC1 | 0.84 µM |
| COc1cc2ncnc(NCCc3ccccc3Cl)c2cc1OC | 1.12 µM |
| CCCCCCC1(C)N=C(N)N=C(N)C1c1ccc(Cl)c(Cl)c1 (stereo not given) | 0.13 µM |
| Cc1cccc2[nH]c(-c3ccc(-c4ccc(CNCc5ccc(CN)cc5)cc4)cc3)nc12 | 0.72 µM |
| CC(C)COc1ccc(Cl)cc1Cc1ccc(-c2nc3ccc(CCN4CCCC4)cc3[nH]2)o1 | 0.73 µM |
| N#Cc1cccc(NC(=O)C2=C(CCc3ccc4c(c3)OCO4)NC(=O)NC2c2cccc(C#N)c2)c1 (stereo not given) | 0.83 µM |
| CCN(CC)CCCOc1ccc(Nc2nccc(-c3c(-c4cccc(NC(=O)c5c(F)cccc5F)c4)nn4ccccc34)n2)cc1F | 0.41 µM |

| Compound | IC50 |
| --- | --- |
| ON=C1c2cc(OCCN3CCCCC3)c(Cl)cc2-c2cc(Cl)c(OCCN3CCCCC3)cc21 | 0.7 µM |
| O=C(NCc1ccccn1)C(c1cc2ccccc2o1)N1CCN(C(c2ccccc2)c2ccccc2)CC1 (stereo not given) | 0.86 µM |
| S=c1nc(-c2ccccc2)n2ccsc2n1 | 0.18 µM |
| Cc1ccc(Cl)cc1N1CCN(CCCNC(=O)C2CCN(c3nc4ccccc4[nH]3)CC2)CC1 | 0.9 µM |
| C#CCOc1ccc(CC(C)NCC(O)c2cccc(C(F)(F)F)c2)cc1 (stereo not given) | 1.19 µM and 1.03 µM |
| CCN(CC)C(=O)c1cnc(-c2ccccc2)nc1Oc1cccc(Cl)c1 | 1.16 µM |
| CCc1ccc(NC(=O)c2ccc(CN3CCCN(Cc4cccc(O)c4)CC3)cc2)cc1 | 0.67 µM |
| c1cn(CCCNc2ncc(-c3ccsc3)c(-c3nccs3)n2)cn1 | 0.65 µM |
| CCOc1ccc(Cc2c(C)nc3nc(N)nc(N)c3c2C)cc1 | 1.06 µM |
| Cc1[nH]c(C)c(-c2ccc(-c3ccc(Cl)cc3)cc2)c(=O)c1Cl | 0.21 µM |
| CC(Cc1ccc(OCCOc2ccccc2)cc1)NCC(O)c1cccc(C(F)(F)F)c1 (stereo not given) | 0.97 µM |
| NCc1cccc(-c2cccc(CN(C(=O)Nc3ccccc3)C3CCN(Cc4ccccc4)CC3)c2)c1 | 0.83 µM |
| CC(C)c1ccc(NC(=O)N[C@H]2CCN(CCCCCNC(=O)/C=C/c3ccc(Cl)c(Cl)c3)C2)cc1 | 0.71 µM |
| COC(=O)c1ccc2[nH]cc(C3CCN(CCC4CCN(C(=O)/C=C/c5ccc(Cl)c(Cl)c5)CC4)CC3)c2c1 | 0.51 µM |
| COc1ccc2nc3cc(Cl)ccc3c(NCCCO)c2c1 | 0.78 µM |
| CCC[C@@H]([C@@H](CC(C)C)C(=O)N[C@@H](CCCNc1nccc(C(F)(F)F)n1)C(=O)Nc1nccs1)N(O)C=O | 0.37 µM |
| O=C1C=Cc2ccccc2/C1=C/c1sc(=NCc2ccccc2)n(Cc2ccccc2)c1O | 0.16 µM |
| Clc1ccccc1/C=C/c1cncnc1Nc1ccc2nc(Cc3ccccc3)[nH]c2c1 | 0.92 µM |
| COc1ccc(C(=O)CCC(=O)N(Cc2ccc(-c3ccc(CNCCc4ccc(S(C)(=O)=O)cc4)cn3)cc2)C(C)CN(C)C)cc1F (stereo not given) | 0.65 µM |
| CCOc1cc(Cc2cnc(N)nc2N)ccc1OC | 1.25 µM |
| COCCOc1ccc(Nc2nccc(-c3c(-c4cccc(NC(=O)c5c(F)cccc5F)c4)nn4ccccc34)n2)cc1F | 0.95 µM |
| COc1ccc2nccc(N3CCC(NCCNCc4cc5c(cn4)OCCO5)C3)c2n1 (stereo not given) | 0.58 µM |
| COc1cccc(OCC2CCCN(CCCCNC(=O)c3ccc(NC(=O)c4ccc(Cl)cc4)cc3)C2)c1 (stereo not given) | 0.75 µM |
| Cn1cnc(CCNC(=O)c2ccc(-c3ccc(-c4nc5ccc(F)cc5[nH]4)cc3)cc2)c1 | 0.87 µM |
| COc1ccc(CCNc2ccnc3cc(Cl)ccc23)cc1OC | 0.89 µM |
